From US8952024B2, “Herbicidal pyrimidone derivatives” (E I du Pont de Nemours and Company, priority 2009, dated 2015)

What was measured:
Type in all cases: in vivo
[1] = system: barnyardgrass (Echinochloa crus-galli); test: Test A pre-/postemergence plant response
Description: (§1) Seeds of barnyardgrass (Echinochloa crus-galli), large crabgrass (Digitaria sanguinalis), giant foxtail (Setaria faberii), morningglory (Ipomoea spp.), pigweed (Amaranthus retroflexus), velvetleaf (Abutilon theophrasti), wheat (Triticum aestivum) and corn (Zea mays) were planted into a blend of loam soil and sand and treated preemergence with a directed soil spray using test chemicals formulated in a non-phytotoxic solvent mixture which included a surfactant. At the same time these species were also treated with postemergence applications of test compounds formulated in the same manner.
(§2) Plants ranged in height from two to ten cm and were in the one- to two-leaf stage for the postemergence treatment. Treated plants and untreated controls were maintained in a greenhouse for approximately ten days, after which time all treated plants were compared to untreated controls and visually evaluated for injury. Plant response ratings, summarized in Table A, are based on a 0 to 100 scale where 0 is no effect and 100 is complete control. A dash (-) response means no test result.

[2] = system: corn (Zea mays); test: Test A pre-/postemergence plant response
Description: as §1, §2

[3] = system: giant foxtail (Setaria faberii); test: Test A pre-/postemergence plant response
Description: as §1, §2

[4] = system: large crabgrass (Digitaria sanguinalis); test: Test A pre-/postemergence plant response
Description: as §1, §2

[5] = system: morningglory (Ipomoea spp.); test: Test A pre-/postemergence plant response
Description: as §1, §2

[6] = system: pigweed (Amaranthus retroflexus); test: Test A pre-/postemergence plant response
Description: as §1, §2

[7] = system: velvetleaf (Abutilon theophrasti); test: Test A pre-/postemergence plant response
Description: as §1, §2

[8] = system: wheat (Triticum aestivum); test: Test A pre-/postemergence plant response
Description: as §1, §2

[9] = system: barnyardgrass (Echinochloa crus-galli); test: Test B flooded paddy test; settings: for Plant response rating, Barnyardgrass: Flood (flooded paddy test), scale 0 to 100, 0 is no effect, 100 is complete control, 13 to 15 days
Description: (§3) Plant species in the flooded paddy test consisted of rice (Oryza sativa), umbrella sedge (Cyperus difformis), ducksalad (Heteranthera limosa) and barnyardgrass (Echinochloa crus-galli) grown to the 2-leaf stage for testing. At the time of treatment, test pots were flooded with water to 3 cm above the soil surface, treated by application of test compounds directly to the paddy water, and then maintained at that water depth for the duration of the test.
(§4) Treated plants and controls were maintained in a greenhouse for 13 to 15 days, after which time all treated plants were visually evaluated and compared to controls. Plant response ratings, summarized in Table B, are based on a scale of 0 to 100 where 0 is no effect and 100 is complete control. A dash (-) response means no test result.

[10] = system: ducksalad (Heteranthera limosa); test: Test B flooded paddy test; settings: for Plant response rating, Ducksalad: Flood (flooded paddy test), scale 0 to 100, 0 is no effect, 100 is complete control, 13 to 15 days
Description: as §3, §4

[11] = system: rice (Oryza sativa); test: Test B flooded paddy test; settings: for Plant response rating, Rice: Flood (flooded paddy test), scale 0 to 100, 0 is no effect, 100 is complete control, 13 to 15 days
Description: as §3, §4

[12] = system: umbrella sedge (Cyperus difformis); test: Test B flooded paddy test; settings: for Plant response rating, Sedge, Umbrella: Flood (flooded paddy test), scale 0 to 100, 0 is no effect, 100 is complete control, 13 to 15 days
Description: as §3, §4

[13] = Postemergence, 125 g ai/ha, 0 to 100 scale where 0 is no effect and 100 is complete control
[14] = Postemergence, 500 g ai/ha, visual injury, 0 to 100 scale (0 no effect, 100 complete control), approx. ten days
[15] = Preemergence, 125 g ai/ha, 0 to 100 scale, 0 = no effect, 100 = complete control
[16] = Preemergence, 500 g ai/ha, 0 to 100 scale, 0 = no effect, 100 = complete control
[17] = Flood, 31 g ai/ha, scale 0 to 100 (0 no effect, 100 complete control)
[18] = Postemergence, 125 g ai/ha, visual injury, 0 to 100 scale (0 no effect, 100 complete control), approx. ten days
[19] = Postemergence, 500 g ai/ha, 0 to 100 scale, 0 = no effect, 100 = complete control, approx. ten days
[20] = Preemergence, 500 g ai/ha, visual injury, 0 to 100 scale (0 no effect, 100 complete control), approx. ten days
[21] = 250 g ai/ha, flooded paddy test, visual rating on 0 to 100 scale (0 no effect, 100 complete control) after 13 to 15 days

`O=C1CCCC(O)=C1C(=O)c1cnc(-c2cc(F)cc(F)c2)n(CC2CCCO2)c1=O` (stereo not shown) [Compound 180] was tested, and the “Plant response rating, Barnyardgrass” value [1, 13] was 90, the “Barnyardgrass plant response rating” value [1, 14] was 100 and the “Plant response rating, Barnyardgrass” value [1, 15] was 30. The “Plant response rating, Barnyardgrass” value [1, 16] was 80, the “Plant response rating, Corn” value [2, 13] was 10 and the “Corn plant response rating” value [2, 14] was 40. The “Plant response rating, Corn” value [2, 15] was 0, the “Plant response rating, Corn” value [2, 16] was 0 and the “Plant response rating, Foxtail, Giant” value [3, 13] was 70. For the same compound, the “Foxtail, Giant plant response rating” value [3, 14] was 100, the “Plant response rating, Foxtail, Giant” value [3, 15] was 30 and the “Plant response rating, Foxtail, Giant” value [3, 16] was 70. The “Plant response rating, Crabgrass, Large” value [4, 13] was 90, the “Crabgrass, Large plant response rating” value [4, 14] was 100 and the “Plant response rating, Crabgrass, Large” value [4, 15] was 80. For the same compound, the “Plant response rating, Crabgrass, Large” value [4, 16] was 100, the “Plant response rating, Morningglory” value [5, 13] was 40 and the “Morningglory plant response rating” value [5, 14] was 100. The “Plant response rating, Morningglory” value [5, 15] was 0, the “Plant response rating, Pigweed” value [6, 13] was 100 and the “Pigweed plant response rating” value [6, 14] was 100. For the same compound, the “Plant response rating, Pigweed” value [6, 15] was 90, the “Plant response rating, Pigweed” value [6, 16] was 100 and the “Plant response rating, Velvetleaf” value [7, 13] was 100. The “Velvetleaf plant response rating” value [7, 14] was 100, the “Plant response rating, Velvetleaf” value [7, 15] was 80 and the “Plant response rating, Velvetleaf” value [7, 16] was 100. For the same compound, the “Plant response rating, Wheat” value [8, 13] was 0, the “Wheat plant response rating” value [8, 14] was 30 and the “Plant response rating, Wheat” value [8, 15] was 0. For the same compound, the “Plant response rating, Wheat” value [8, 16] was 20, the “Plant response rating, Barnyardgrass” value ([9]; 125 g ai/ha) was 15 and the “Barnyardgrass plant response rating” value [9, 17] was 0. For the same compound, the “Plant response rating, Ducksalad” value ([10]; 125 g ai/ha) was 75, the “Ducksalad plant response rating” value [10, 17] was 60 and the “Plant response rating, Rice” value ([11]; 125 g ai/ha) was 30. The “Rice plant response rating” value [11, 17] was 15, the “Plant response rating, Sedge, Umbrella” value ([12]; 125 g ai/ha) was 65 and the “Sedge, Umbrella plant response rating” value [12, 17] was 20.

With `O=C1CCCC(O)=C1C(=O)c1cnc(-c2ccc(Cl)cc2)n(-c2ccccc2)c1=O` [Compound 25] the “Barnyardgrass plant response rating” value [1, 18] was 30, the “Plant response rating, Barnyardgrass” value [1, 19] was 90 and the “Plant response rating, Barnyardgrass” value [1, 15] was 20. The “Plant response rating, Barnyardgrass” value [1, 20] was 80, the “Corn plant response rating” value [2, 18] was 0 and the “Plant response rating, Corn” value [2, 19] was 20. The “Plant response rating, Corn” value [2, 15] was 0, the “Plant response rating, Corn” value [2, 20] was 0 and the “Foxtail, Giant plant response rating” value [3, 18] was 50. For the same compound, the “Plant response rating, Foxtail, Giant” value [3, 19] was 90, the “Plant response rating, Foxtail, Giant” value [3, 15] was 50 and the “Plant response rating, Foxtail, Giant” value [3, 20] was 90. The “Crabgrass, Large plant response rating” value [4, 18] was 40, the “Plant response rating, Crabgrass, Large” value [4, 19] was 90 and the “Plant response rating, Crabgrass, Large” value [4, 15] was 60. For the same compound, the “Plant response rating, Crabgrass, Large” value [4, 20] was 100, the “Morningglory plant response rating” value [5, 18] was 50 and the “Plant response rating, Morningglory” value [5, 19] was 90. The “Plant response rating, Morningglory” value [5, 15] was 0, the “Plant response rating, Morningglory” value [5, 20] was 60 and the “Pigweed plant response rating” value [6, 18] was 80. The “Plant response rating, Pigweed” value [6, 19] was 100, the “Plant response rating, Pigweed” value [6, 15] was 50 and the “Plant response rating, Pigweed” value [6, 20] was 80. For the same compound, the “Velvetleaf plant response rating” value [7, 18] was 100, the “Plant response rating, Velvetleaf” value [7, 19] was 100 and the “Plant response rating, Velvetleaf” value [7, 15] was 80. For the same compound, the “Plant response rating, Velvetleaf” value [7, 20] was 100, the “Wheat plant response rating” value [8, 18] was 0 and the “Plant response rating, Wheat” value [8, 19] was 0. For the same compound, the “Plant response rating, Wheat” value [8, 15] was 0, the “Plant response rating, Wheat” value [8, 20] was 20 and the “Plant response rating, Flood, Barnyardgrass” value [9, 21] was 0. For the same compound, the “Plant response rating, Barnyardgrass” value ([9]; 62 g ai/ha) was 0, the “Plant response rating, Flood, Ducksalad” value [10, 21] was 0 and the “Plant response rating, Ducksalad” value ([10]; 62 g ai/ha) was 0. The “Plant response rating, Flood, Rice” value [11, 21] was 0, the “Plant response rating, Rice” value ([11]; 62 g ai/ha) was 0 and the “Plant response rating, Flood, Sedge, Umbrella” value [12, 21] was 0. For the same compound, the “Plant response rating, Sedge, Umbrella” value ([12]; 62 g ai/ha) was 0.
